Starred links: 1 amine or outer side, 2 acyl side, 3 side chain; linkers in the order of their positions; H or OH if unused. Positions of bridges follow the written chain, without caps; N, C: chain ends. Non-standard residues stand in square brackets, D forms with d. Residues, ends and D or L forms follow the SMILES beside them. *: point of attachment. X7 = CC(C(=O)[C@H](Cc1ccccc1)N(C)[*:1])[C@@H](Cc1ccccc1)C(=O)[*:2]; X19 = CC(C)[C@@H](C(=O)C[C@H](C(=O)[*:2])[C@@H](C)O)N(C)[*:1]; NMeF = CN[C@@H](Cc1ccccc1)C(=O)O; 3Pal = N[C@@H](Cc1cccnc1)C(=O)O; NMeD = CN[C@@H](CC(=O)O)C(=O)O; aThr = C[C@H](O)[C@H](N)C(=O)O; NMeL = CN[C@@H](CC(C)C)C(=O)O; NMeV = CN[C@H](C(=O)O)C(C)C; NMeA = CN[C@@H](C)C(=O)O; Piperidide = C1CCN(*)CC1; dNMeA = CN[C@H](C)C(=O)O; NPrGly = CCCNCC(=O)O; Sar = CNCC(=O)O; tBu = CC(C)(C)*
Test: Caco-2 membrane permeability, improved method as used in the following Examples (96-well, 20 to 24 h preincubation)
Type: in vitro ADME
Conditions: human, Caco-2, Caco-2 (cm/sec)
Summary of the method: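 Caco-2 monolayers were grown three weeks and preincubated 20–24 h at 37 °C with compound in DMEM+FaSSIF (1% DMSO) apically. The assay then used compound in FaSSIF/HBSS (1% DMSO, pH 6.0) apically and HBSS with 4% BSA (pH 7.4) basally. Basal samples were taken at 180 min for LC/MS, and Papp (cm/sec) was calculated.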

SMILES	Papp A→B at 180 min [×10⁻⁶ cm/s]
CCCN1CC(=O)N(C)[C@@H](Cc2ccccc2)C(=O)N[C@@H]([C@@H](C)CC)C(=O)N(C)[C@@H](Cc2ccccc2)C(=O)N[C@@H]([C@@H](C)O)C(=O)N(C)CC(=O)N(C)[C@@H](Cc2ccccc2)C(=O)N(C)[C@@H](CC(C)C)C(=O)N[C@@H](COC(C)(C)C)C(=O)N(C)[C@@H](C(C)C)C(=O)N[C@H](C(=O)N2CCCCC2)CC1=O [pd195] ([NPrGly][NMeF]I[NMeF]T[Sar][NMeF][NMeL]S(tBu)[NMeV]D-Piperidide; lactam N-11)	5
CC(C)C[C@@H]1NC(=O)[C@H](Cc2ccccc2)N(C)C(=O)[C@H](C)N(C)C(=O)C[C@@H](C(=O)N2CCCCC2)NC(=O)[C@H](C(C)C)N(C)C(=O)[C@H](Cc2ccccc2)N(C)C(=O)[C@H](COC(C)(C)C)NC(=O)[C@H](CC(C)C)N(C)C(=O)CN(C)C(=O)[C@H](Cc2cccnc2)NC(=O)[C@H](CC(C)C)N(C)C1=O [pd197] ([NMeA][NMeF]L[NMeL][3Pal][Sar][NMeL]S(tBu)[NMeF][NMeV]D-Piperidide; lactam N-11)	3
CC(C)C[C@@H]1NC(=O)[C@H](Cc2ccccc2)N(C)C(=O)[C@@H](C)N(C)C(=O)C[C@@H](C(=O)N2CCCCC2)N(C)C(=O)[C@H](Cc2ccccc2)N(C)C(=O)[C@H](Cc2ccccc2)N(C)C(=O)[C@H](COC(C)(C)C)NC(=O)[C@H](C(C)C)N(C)C(=O)CN(C)C(=O)[C@H]([C@@H](C)O)NC(=O)[C@H](CC(C)C)N(C)C1=O [pd199] ([dNMeA][NMeF]L[NMeL]T[Sar][NMeV]S(tBu)[NMeF][NMeF][NMeD]-Piperidide; lactam N-11)	2.6
CC(C)C[C@@H]1NC(=O)[C@H](Cc2ccccc2)N(C)C(=O)[C@H]2CCCN2C(=O)C[C@@H](C(=O)N2CCCCC2)N(C)C(=O)[C@H](Cc2ccccc2)N(C)C(=O)[C@H](Cc2ccccc2)N(C)C(=O)[C@H](COC(C)(C)C)NC(=O)[C@H](C(C)C)N(C)C(=O)CN(C)C(=O)[C@H]([C@@H](C)O)NC(=O)[C@H](CC(C)C)N(C)C1=O [pd200] ([dP][NMeF]L[NMeL]T[Sar][NMeV]S(tBu)[NMeF][NMeF][NMeD]-Piperidide; lactam N-11)	2.6
CC(C)C[C@@H]1NC(=O)[C@H](Cc2ccccc2)N(C)C(=O)[C@H](C)N(C)C(=O)C[C@@H](C(=O)N2CCCCC2)N(C)C(=O)[C@H](Cc2ccccc2)N(C)C(=O)[C@H](Cc2ccccc2)N(C)C(=O)[C@H](COC(C)(C)C)NC(=O)[C@H](C(C)C)N(C)C(=O)CN(C)C(=O)[C@H]([C@@H](C)O)NC(=O)[C@H](CC(C)C)N(C)C1=O [pd202] ([NMeA][NMeF]L[NMeL]T[Sar][NMeV]S(tBu)[NMeF][NMeF][NMeD]-Piperidide; lactam N-11)	2.1
CC(C)C[C@@H]1NC(=O)[C@H](Cc2ccccc2)N(C)C(=O)[C@@H]2CCCN2C(=O)C[C@@H](C(=O)N2CCCCC2)NC(=O)[C@H](Cc2ccccc2)N(C)C(=O)[C@H](Cc2ccccc2)N(C)C(=O)[C@H](COC(C)(C)C)NC(=O)[C@H](CC(C)C)N(C)C(=O)CN(C)C(=O)[C@H]([C@@H](C)O)NC(=O)[C@H](CC(C)C)N(C)C1=O [pd203] (P[NMeF]L[NMeL]T[Sar][NMeL]S(tBu)[NMeF][NMeF]D-Piperidide; lactam N-11)	2.1
CC(C)C[C@@H]1NC(=O)[C@H](C)N(C)C(=O)C[C@@H](C(=O)N2CCCCC2)NC(=O)[C@H](CC(C)C)N(C)C(=O)CN(C)C(=O)[C@H]([C@@H](C)O)NC(=O)[C@H](Cc2ccccc2)N(C)C(=O)[C@H](Cc2ccccc2)N(C)C(=O)[C@H](CC(C)C)NC(=O)[C@H](Cc2ccccc2)N(C)C(=O)[C@H](CC(C)C)N(C)C1=O [pd204] ([NMeA]L[NMeL][NMeF]L[NMeF][NMeF]T[Sar][NMeL]D-Piperidide; lactam N-11)	2
CC[C@H](C)[C@@H]1NC(=O)[C@H](Cc2ccccc2)N(C)C(=O)CN(C)C(=O)C[C@@H](C(=O)N2CCCCC2)NC(=O)[C@H](C(C)C)N(C)C(=O)[C@H](COC(C)(C)C)NC(=O)[C@H](CC(C)C)N(C)C(=O)[C@H](Cc2ccccc2)N(C)C(=O)CN(C)C(=O)[C@H]([C@@H](C)O)NC(=O)[C@H](Cc2ccccc2)N(C)C1=O [pd205] ([Sar][NMeF]I[NMeF]T[Sar][NMeF][NMeL]S(tBu)[NMeV]D-Piperidide; lactam N-11)	1.8
CC(C)C[C@@H]1NC(=O)[C@H](Cc2ccccc2)N(C)C(=O)[C@H]2CCCN2C(=O)C[C@@H](C(=O)N2CCCCC2)NC(=O)[C@H](Cc2ccccc2)N(C)C(=O)[C@H](Cc2ccccc2)N(C)C(=O)[C@H](COC(C)(C)C)NC(=O)[C@H](CC(C)C)N(C)C(=O)CN(C)C(=O)[C@H]([C@@H](C)O)NC(=O)[C@H](CC(C)C)N(C)C1=O [pd206] ([dP][NMeF]L[NMeL]T[Sar][NMeL]S(tBu)[NMeF][NMeF]D-Piperidide; lactam N-11)	1.8
CC(C)C[C@@H]1NC(=O)[C@H](Cc2ccccc2)N(C)C(=O)[C@H](COC(C)(C)C)NC(=O)[C@H](Cc2ccccc2)N(C)C(=O)[C@H](C)N(C)C(=O)[C@H](CC(C)C)N(C)C(=O)[C@@H](C)NC(=O)C[C@@H](C(=O)N2CCCCC2)N(C)C(=O)[C@H](Cc2ccccc2)N(C)C(=O)[C@H]([C@@H](C)O)NC(=O)[C@H](C(C)C)N(C)C1=O [pd208] ([dA][NMeL][NMeA][NMeF]S(tBu)[NMeF]L[NMeV]T[NMeF][NMeD]-Piperidide; lactam N-11)	1.7
CC(C)C[C@@H]1NC(=O)[C@H](Cc2ccccc2)N(C)C(=O)[C@H](C)NC(=O)C[C@@H](C(=O)N2CCCCC2)N(C)C(=O)[C@H](Cc2ccccc2)N(C)C(=O)[C@H](Cc2ccccc2)N(C)C(=O)[C@H](COC(C)(C)C)NC(=O)[C@H](CC(C)C)N(C)C(=O)CN(C)C(=O)[C@H]([C@@H](C)O)NC(=O)[C@H](CC(C)C)N(C)C1=O [pd209] (A[NMeF]L[NMeL]T[Sar][NMeL]S(tBu)[NMeF][NMeF][NMeD]-Piperidide; lactam N-11)	1.7
CC(C)C[C@H]1C(=O)N[C@@H](COC(C)(C)C)C(=O)N(C)[C@@H](Cc2ccccc2)C(=O)N(C)[C@@H](CC(C)C)C(=O)N[C@H](C(=O)N2CCCCC2)CC(=O)N[C@H](C(C)C)C(=O)N(C)[C@@H](Cc2ccccc2)C(=O)N[C@@H](C(C)C)C(=O)N(C)[C@@H](Cc2ccccc2)C(=O)N[C@@H]([C@@H](C)O)C(=O)N(C)CC(=O)N1C [pd210] ([dV][NMeF]V[NMeF]T[Sar][NMeL]S(tBu)[NMeF][NMeL]D-Piperidide; lactam N-11)	1.6
CC(C)C[C@@H]1NC(=O)[C@H](CC(C)C)N(C)C(=O)[C@H](C)N(C)C(=O)C[C@@H](C(=O)N2CCCCC2)NC(=O)[C@H](CC(C)C)N(C)C(=O)[C@H](Cc2ccccc2)N(C)C(=O)[C@H](Cc2ccccc2)N(C)C(=O)[C@H]([C@@H](C)O)NC(=O)[C@H](Cc2ccccc2)N(C)C1=O [pd211] ([NMeA][NMeL]L[NMeF]T[NMeF][NMeF][NMeL]D-Piperidide; lactam N-9)	1.4
CC(C)C[C@H]1C(=O)N[C@H](C(=O)N(C)[C@@H](Cc2ccccc2)C(=O)N[C@@H](C)C(=O)N2CCCCC2)CC(=O)N(C)[C@@H](C)C(=O)N[C@@H]([C@@H](C)O)C(=O)N(C)[C@@H](C)C(=O)N(C)[C@@H](CC(C)C)C(=O)N[C@@H](C(C)C)C(=O)N(C)[C@@H](Cc2ccccc2)C(=O)N[C@@H](Cc2ccccc2)C(=O)N1C [pd212] ([NMeA]T[NMeA][NMeL]V[NMeF]F[NMeL]D[NMeF]A-Piperidide; lactam N-9)	1.4
CC(C)C[C@@H]1NC(=O)[C@H](Cc2ccccc2)N(C)C(=O)[C@H](COC(C)(C)C)NC(=O)[C@H](Cc2ccccc2)N(C)C(=O)[C@H](C)N(C)C(=O)[C@H](CC(C)C)N(C)C(=O)[C@H](C)N(C)C(=O)C[C@@H](C(=O)N2CCCCC2)N(C)C(=O)[C@H](Cc2ccccc2)N(C)C(=O)[C@H]([C@@H](C)O)CC(=O)[C@H](C(C)C)N(C)C1=O [pd213] ([NMeA][NMeL][NMeA][NMeF]S(tBu)[NMeF]L[X19][NMeF][NMeD]-Piperidide; lactam N-10)	1.3
CC(C)C[C@@H]1NC(=O)[C@H](Cc2ccccc2)N(C)C(=O)[C@H](COC(C)(C)C)NC(=O)[C@H](Cc2ccccc2)N(C)C(=O)[C@H](C)N(C)C(=O)[C@H](CC(C)C)N(C)C(=O)[C@@H]2CCCN2C(=O)N[C@@H](C(=O)N2CCCCC2)NC(=O)[C@H](Cc2ccccc2)N(C)C(=O)[C@H]([C@@H](C)O)NC(=O)[C@H](CC(C)C)N(C)C1=O [pd214]	1.2

Same assay, conditions: human, Caco-2, Papp; Table 23-1, sequences where ARC = 3; read-out: Caco-2

SMILES	Papp A→B at 180 min [×10⁻⁶ cm/s]
CC(C)C[C@@H]1NC(=O)[C@H](Cc2ccccc2)N(C)C(=O)[C@@H]2CCCN2C(=O)C[C@@H](C(=O)N2CCCCC2)N(C)C(=O)[C@H](Cc2ccccc2)C(C)C(=O)[C@H](Cc2ccccc2)N(C)C(=O)[C@H](COC(C)(C)C)NC(=O)[C@H](C(C)C)N(C)C(=O)CN(C)C(=O)[C@H]([C@@H](C)O)NC(=O)[C@H](CC(C)C)N(C)C1=O (stereo partly drawn) [pd196] (P[NMeF]L[NMeL]T[Sar][NMeV]S(tBu)[X7][NMeD]-Piperidide; lactam N-10)	4

Same assay, conditions: human, Caco-2; read-out: Caco-2

SMILES	Papp A→B at 180 min [×10⁻⁶ cm/s]
CC[C@H](C)[C@@H]1NC(=O)[C@H](CC(C)C)N(C)C(=O)[C@H](C)N(C)C(=O)[C@H]([C@H](C)O)NC(=O)[C@H](Cc2ccccc2)N(C)C(=O)[C@H](C)N(C)C(=O)[C@@H](C)N(C)C(=O)C[C@@H](C(=O)N(C)[C@@H](Cc2ccccc2)C(=O)N(C)[C@@H](Cc2ccccc2)C(=O)N[C@@H](C)C(=O)N2CCCCC2)NC(=O)[C@H](C(C)C)N(C)C(=O)[C@H](CC(C)C)N(C)C1=O [pd201] ([dNMeA][NMeA][NMeF][aThr][NMeA][NMeL]I[NMeL][NMeV]D[NMeF][NMeF]A-Piperidide; lactam N-10)	2.3
